According to patent publication EP4745135A1 (Gluetacs Therapeutics (Shanghai) Co., Ltd., priority 2023, dated 2025):

Experiments:
CK1α = target: T1, CK1α (Homo sapiens, UniProt P48729+Q96SW2); experiment: Western blot, degradation of substrate protein in hPBMCs; format: cell-based
T1 construct: effects of the compounds of the present disclosure on the expression of target proteins in cells; endogenous in cells; host or cells: human PBMCs (Milecell Biotechnologies)

IKZF1 = target: T2, IKZF1 (Homo sapiens, UniProt Q13422+Q96SW2); experiment: as above; format: cell-based
T2 construct: effects of the compounds of the present disclosure on the expression of target proteins in cells; endogenous in cells; host or cells: human PBMCs (Milecell Biotechnologies)

IKZF2 = target: T3, IKZF2 (Homo sapiens, UniProt Q96SW2+Q9UKS7); experiment: as above; format: cell-based
T3 construct: effects of the compounds of the present disclosure on the expression of target proteins in cells; endogenous in cells; host or cells: human PBMCs (Milecell Biotechnologies)

IKZF3 = target: T4, IKZF3 (Homo sapiens, UniProt Q96SW2+Q9UKT9); experiment: as above; format: cell-based
T4 construct: effects of the compounds of the present disclosure on the expression of target proteins in cells; endogenous in cells; host or cells: human PBMCs (Milecell Biotechnologies)

WEE1 = target: T5, WEE1 (Homo sapiens, UniProt P30291+Q96SW2); experiment: as above; format: cell-based
T5 construct: effects of the compounds of the present disclosure on the expression of target proteins in cells; endogenous in cells; host or cells: human PBMCs (Milecell Biotechnologies)

GSPT1 = experiment: as above; format: cell-based, Human
[1] = target: T6, human Cereblon WT GST-tagged protein (Homo sapiens, UniProt Q96SW2); experiment: CRBN-binding affinity, HTRF (CEREBLON BINDING kit); settings: for inhibition at 0.5 µM: read-out: Inhibition Rate at 0.5 µM (%); for inhibition at 2 µM: read-out: Inhibition Rate at 2 µM (%)
T6 construct: purchased CISBIO 64BDCRBNPEH

[2] = tested on: Human myeloid monocytic leukemia cell (MV-4-11); experiment: Tumor cell proliferation inhibition (CellTiter-Meiluncell luminescent cell viability assay); settings: MV4-11, 96 h; for inhibition at 0.01 µM: read-out: Inhibition Rate at 10 nM (%); for inhibition at 0.5 µM: read-out: Inhibition Rate at 500 nM (%)
[3] = Western blot, 24 hours of compound treatment, compounds tested at 50 nM and 500 nM (concentration for the table not stated)
[4] = 24 hours treatment, compounds at 50 nM and 500 nM (concentration behind the class not stated)

T3 sequence (Q9UKS7 whole entry): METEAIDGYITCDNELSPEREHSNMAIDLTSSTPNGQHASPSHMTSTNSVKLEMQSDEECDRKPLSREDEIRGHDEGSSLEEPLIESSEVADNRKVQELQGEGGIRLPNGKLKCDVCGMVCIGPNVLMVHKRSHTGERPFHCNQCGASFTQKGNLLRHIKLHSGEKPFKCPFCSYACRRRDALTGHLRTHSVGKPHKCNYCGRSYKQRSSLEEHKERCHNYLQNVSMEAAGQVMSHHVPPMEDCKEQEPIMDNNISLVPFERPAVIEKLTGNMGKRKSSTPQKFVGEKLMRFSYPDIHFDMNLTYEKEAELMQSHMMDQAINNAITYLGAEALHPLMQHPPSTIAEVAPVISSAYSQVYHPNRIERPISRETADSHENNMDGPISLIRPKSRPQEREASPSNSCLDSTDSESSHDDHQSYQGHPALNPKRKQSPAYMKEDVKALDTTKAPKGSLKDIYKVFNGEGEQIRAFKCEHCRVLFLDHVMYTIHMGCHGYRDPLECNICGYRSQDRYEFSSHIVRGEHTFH
T3 sequence (Q96SW2 whole entry): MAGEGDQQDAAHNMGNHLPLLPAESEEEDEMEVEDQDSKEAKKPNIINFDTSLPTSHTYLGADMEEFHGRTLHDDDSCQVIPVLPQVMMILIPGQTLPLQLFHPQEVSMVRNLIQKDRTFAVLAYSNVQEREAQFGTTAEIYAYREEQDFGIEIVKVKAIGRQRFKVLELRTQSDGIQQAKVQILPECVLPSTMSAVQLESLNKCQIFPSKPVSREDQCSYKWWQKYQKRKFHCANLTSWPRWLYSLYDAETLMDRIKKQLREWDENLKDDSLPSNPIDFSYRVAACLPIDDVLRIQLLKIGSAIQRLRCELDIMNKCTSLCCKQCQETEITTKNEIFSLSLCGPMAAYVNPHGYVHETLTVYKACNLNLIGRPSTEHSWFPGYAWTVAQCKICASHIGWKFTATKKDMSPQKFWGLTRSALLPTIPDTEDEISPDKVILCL
T3 sequence (Q16531 whole entry partner): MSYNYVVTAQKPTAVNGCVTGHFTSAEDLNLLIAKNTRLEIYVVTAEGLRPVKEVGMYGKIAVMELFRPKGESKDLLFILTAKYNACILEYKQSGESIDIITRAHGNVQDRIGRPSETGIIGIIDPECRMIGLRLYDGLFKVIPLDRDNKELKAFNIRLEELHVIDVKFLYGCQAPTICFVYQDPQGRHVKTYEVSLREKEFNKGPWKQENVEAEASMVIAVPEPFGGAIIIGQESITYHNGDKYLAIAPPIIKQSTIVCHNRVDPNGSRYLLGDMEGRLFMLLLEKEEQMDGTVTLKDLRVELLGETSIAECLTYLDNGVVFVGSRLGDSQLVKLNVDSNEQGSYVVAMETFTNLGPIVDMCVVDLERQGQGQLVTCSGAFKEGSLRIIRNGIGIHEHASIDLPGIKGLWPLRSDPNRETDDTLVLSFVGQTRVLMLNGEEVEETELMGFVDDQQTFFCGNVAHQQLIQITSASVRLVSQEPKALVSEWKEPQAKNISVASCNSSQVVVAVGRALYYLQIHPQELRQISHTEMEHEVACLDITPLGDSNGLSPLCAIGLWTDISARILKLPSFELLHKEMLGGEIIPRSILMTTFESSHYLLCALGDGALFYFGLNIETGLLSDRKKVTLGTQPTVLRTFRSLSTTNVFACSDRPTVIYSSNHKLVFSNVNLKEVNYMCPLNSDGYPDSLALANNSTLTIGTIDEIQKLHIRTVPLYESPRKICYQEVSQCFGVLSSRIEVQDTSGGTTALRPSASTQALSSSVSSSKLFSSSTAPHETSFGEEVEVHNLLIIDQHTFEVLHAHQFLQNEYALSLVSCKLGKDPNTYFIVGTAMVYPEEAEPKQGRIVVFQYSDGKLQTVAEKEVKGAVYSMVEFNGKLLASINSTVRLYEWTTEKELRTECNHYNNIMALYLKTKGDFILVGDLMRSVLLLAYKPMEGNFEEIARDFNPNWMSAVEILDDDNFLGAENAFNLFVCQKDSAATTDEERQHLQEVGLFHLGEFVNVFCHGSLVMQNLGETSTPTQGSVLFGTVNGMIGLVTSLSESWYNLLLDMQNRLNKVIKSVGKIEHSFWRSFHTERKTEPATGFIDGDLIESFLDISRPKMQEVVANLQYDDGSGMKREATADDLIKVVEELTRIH
T1 sequence (P48729 whole entry): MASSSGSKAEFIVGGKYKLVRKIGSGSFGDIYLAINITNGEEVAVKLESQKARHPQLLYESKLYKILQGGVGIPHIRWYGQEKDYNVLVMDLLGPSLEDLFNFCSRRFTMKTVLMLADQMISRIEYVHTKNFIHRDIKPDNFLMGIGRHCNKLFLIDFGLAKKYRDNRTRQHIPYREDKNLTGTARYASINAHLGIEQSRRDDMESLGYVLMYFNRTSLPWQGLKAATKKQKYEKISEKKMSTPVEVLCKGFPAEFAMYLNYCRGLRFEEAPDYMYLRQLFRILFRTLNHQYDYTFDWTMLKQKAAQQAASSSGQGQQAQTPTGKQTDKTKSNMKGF
T1 sequence (Q96SW2 whole entry): as the sequence (Q96SW2 whole entry) above
T1 sequence (Q16531 whole entry partner): as the sequence (Q16531 whole entry partner) above
T2 sequence (Q13422 whole entry): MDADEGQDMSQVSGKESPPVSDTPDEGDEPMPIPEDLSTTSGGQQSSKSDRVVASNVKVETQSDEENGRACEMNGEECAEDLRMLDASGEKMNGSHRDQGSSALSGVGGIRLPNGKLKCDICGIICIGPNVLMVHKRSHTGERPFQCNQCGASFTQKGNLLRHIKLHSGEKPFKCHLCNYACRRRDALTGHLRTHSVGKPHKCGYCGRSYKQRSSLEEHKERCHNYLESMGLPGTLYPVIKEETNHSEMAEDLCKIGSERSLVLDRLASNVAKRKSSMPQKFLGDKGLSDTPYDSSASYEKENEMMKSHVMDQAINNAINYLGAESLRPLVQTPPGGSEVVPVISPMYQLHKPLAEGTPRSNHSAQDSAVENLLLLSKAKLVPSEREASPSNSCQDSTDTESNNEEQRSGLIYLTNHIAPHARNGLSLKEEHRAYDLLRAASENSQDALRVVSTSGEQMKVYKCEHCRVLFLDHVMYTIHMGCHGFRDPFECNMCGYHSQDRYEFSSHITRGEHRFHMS
T2 sequence (Q96SW2 whole entry): as the sequence (Q96SW2 whole entry) above
T2 sequence (Q16531 whole entry partner): as the sequence (Q16531 whole entry partner) above
T6 sequence (Q96SW2 whole entry): as the sequence (Q96SW2 whole entry) above
T4 sequence (Q9UKT9 whole entry): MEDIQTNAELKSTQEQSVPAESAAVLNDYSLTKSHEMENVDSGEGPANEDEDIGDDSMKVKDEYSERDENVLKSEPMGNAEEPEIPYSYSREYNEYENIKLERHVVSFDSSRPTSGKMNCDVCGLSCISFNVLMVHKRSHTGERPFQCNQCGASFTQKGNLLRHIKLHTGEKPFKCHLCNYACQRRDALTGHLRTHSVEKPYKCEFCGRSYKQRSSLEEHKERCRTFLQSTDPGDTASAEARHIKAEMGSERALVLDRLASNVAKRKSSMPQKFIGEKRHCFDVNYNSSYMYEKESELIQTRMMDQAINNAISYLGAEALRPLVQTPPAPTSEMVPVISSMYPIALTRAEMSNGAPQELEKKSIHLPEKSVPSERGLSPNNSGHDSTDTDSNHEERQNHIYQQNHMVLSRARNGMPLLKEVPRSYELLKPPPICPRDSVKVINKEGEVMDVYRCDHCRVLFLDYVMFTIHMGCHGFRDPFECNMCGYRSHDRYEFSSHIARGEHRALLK
T4 sequence (Q96SW2 whole entry): as the sequence (Q96SW2 whole entry) above
T4 sequence (Q16531 whole entry partner): as the sequence (Q16531 whole entry partner) above
T5 sequence (P30291 whole entry): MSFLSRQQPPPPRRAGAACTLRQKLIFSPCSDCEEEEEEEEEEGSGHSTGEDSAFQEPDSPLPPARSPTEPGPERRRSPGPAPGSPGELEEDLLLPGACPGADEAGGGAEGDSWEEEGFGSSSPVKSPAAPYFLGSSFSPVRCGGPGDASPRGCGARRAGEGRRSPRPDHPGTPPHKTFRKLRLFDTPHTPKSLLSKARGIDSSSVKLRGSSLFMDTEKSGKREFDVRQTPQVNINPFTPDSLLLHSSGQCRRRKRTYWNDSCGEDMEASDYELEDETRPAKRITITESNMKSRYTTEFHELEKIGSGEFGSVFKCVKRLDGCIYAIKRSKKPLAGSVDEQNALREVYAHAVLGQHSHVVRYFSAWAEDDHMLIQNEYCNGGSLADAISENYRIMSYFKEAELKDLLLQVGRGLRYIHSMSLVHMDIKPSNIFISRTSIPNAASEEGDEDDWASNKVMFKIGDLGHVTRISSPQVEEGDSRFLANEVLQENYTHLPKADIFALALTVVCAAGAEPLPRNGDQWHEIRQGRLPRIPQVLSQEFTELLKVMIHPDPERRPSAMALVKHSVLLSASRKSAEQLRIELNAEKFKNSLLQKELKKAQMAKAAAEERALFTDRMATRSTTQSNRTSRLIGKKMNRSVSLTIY
T5 sequence (Q96SW2 whole entry): as the sequence (Q96SW2 whole entry) above
T5 sequence (Q16531 whole entry partner): as the sequence (Q16531 whole entry partner) above

SMILES | CK1α substrate protein remaining % (CK1α; [3]) | IKZF 1 substrate protein remaining % (IKZF1; [3]) | IKZF2 substrate protein remaining % (IKZF2; [3]) | IKZF3 substrate protein remaining % (IKZF3; [3]) | Wee1 substrate protein remaining % (WEE1; [3]) | GSPT1 substrate protein remaining % (GSPT1; [3]) | inhibition at 0.5 µM [1] | inhibition at 2 µM [1] | inhibition at 0.01 µM [2] | inhibition at 0.5 µM [2] | CK1α substrate protein remaining % (CK1α; [4]) | IKZF 1 substrate protein remaining % (IKZF1; [4]) | IKZF2 substrate protein remaining % (IKZF2; [4]) | IKZF3 substrate protein remaining % (IKZF3; [4]) | Wee1 substrate protein remaining % (WEE1; [4]) | GSPT1 substrate protein remaining % (GSPT1; [4])
O=C1CCC(N2Cc3c(CN4CCC(c5c[nH]c6cc(F)ccc56)CC4)cccc3C2=S)C(=O)N1 (centres unmarked) [GT-08492, 3-(4-((4-(6-fluoro-1H-indol-3-yl)piperidin-1-yl)methyl)-1-thioxoisoindolin-2-yl)piperidine-2,6-dione] | B (80%< substrate protein remaining %≤ 100%) | B (80%< substrate protein remaining %≤ 100%) | B (80%< substrate protein remaining %≤ 100%) | B (80%< substrate protein remaining %≤ 100%) | A (0% ≤ substrate protein remaining % ≤ 80%) | B (80%< substrate protein remaining %≤ 100%) | 60 to 80% | 80 to 100% | 30 to 40% | 40 to 60% | – | – | – | – | – | –
O=C1CCC(N2Cc3c(CN4CCN(c5ccc(C(F)(F)F)cc5)CC4)cccc3C2=S)C(=O)N1 (centres unmarked) [GT-08262, 3-(1-thioxo-4-((4-(4-(trifluoromethyl)phenyl)piperazin-1-yl)methyl)isoindolin-2-yl)piperidine-2,6-dione] | A (0% ≤ substrate protein remaining % ≤ 80%) | B (80%< substrate protein remaining %≤ 100%) | B (80%< substrate protein remaining %≤ 100%) | B (80%< substrate protein remaining %≤ 100%) | A (0% ≤ substrate protein remaining % ≤ 80%) | A (0% ≤ substrate protein remaining % ≤ 80%) | 30 to 40% | 60 to 80% | 25 to 30% | 40 to 60% | – | – | – | – | – | –
O=C1CCC(N2Cc3c(CN4CCC(c5ccco5)CC4)cccc3C2=S)C(=O)N1 (centres unmarked) [GT-08310, 3-(4-((4-(furan-2-yl)piperidin-1-yl)methyl)-1-thioxoisoindolin-2-yl)piperidine-2,6-dione] | – | – | – | – | – | – | 30 to 40% | 60 to 80% | 40 to 60% | 60 to 80% | B (80%< substrate protein remaining %≤ 100%) | B (80%< substrate protein remaining %≤ 100%) | B (80%< substrate protein remaining %≤ 100%) | B (80%< substrate protein remaining %≤ 100%) | A (0% ≤ substrate protein remaining % ≤ 80%) | B (80%< substrate protein remaining %≤ 100%)
O=C1CCC(N2Cc3cc(CN4CCN(c5ncccc5F)CC4)ccc3C2=S)C(=O)N1 (centres unmarked) [GT-09220, 3-(5-((4-(3-fluoropyridin-2-yl)piperazin-1-yl)methyl)-1-thioxoisoindolin-2-yl)piperidine-2,6-dione] | B (80%< substrate protein remaining %≤ 100%) | A (0% ≤ substrate protein remaining % ≤ 80%) | A (0% ≤ substrate protein remaining % ≤ 80%) | B (80%< substrate protein remaining %≤ 100%) | A (0% ≤ substrate protein remaining % ≤ 80%) | B (80%< substrate protein remaining %≤ 100%) | 60 to 80% | 80 to 100% | 30 to 40% | 40 to 60% | – | – | – | – | – | –
O=C1CCC(N2Cc3c(CN4CCN(c5ncnc6ccsc56)CC4)cccc3C2=S)C(=O)N1 (centres unmarked) [GT-08970, 3-(4-((4-(thieno[3,2-d]pyrimidin-4-yl)piperazin-1-yl)methyl)-1-thioxoisoindolin-2-yl)piperidine-2,6-dione] | – | – | – | – | – | – | 60 to 80% | 80 to 100% | 18 to 25% | 40 to 60% | B (80%< substrate protein remaining %≤ 100%) | B (80%< substrate protein remaining %≤ 100%) | B (80%< substrate protein remaining %≤ 100%) | B (80%< substrate protein remaining %≤ 100%) | A (0% ≤ substrate protein remaining % ≤ 80%) | B (80%< substrate protein remaining %≤ 100%)
